Values of other authors, collected in patent US20080063689A1, “Dietary supplements containing anthocyanins and methods for using same to enhance creatine absorption and vasodilation” (priority 2006, published 2008).

Tested on: pancreatic beta cells
Details: glucose concentrations within physiological norms

Substance	ability to stimulate insulin secretion
cyanidin-3-glycoside	highest abilities to stimulate insulin secretion
delphinium 3-glycoside	highest abilities to stimulate insulin secretion
